According to PubChem BioAssay (NCI):
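Five concentrations, 48 hours, 96-well plates. GI50 marks 50% less growth. At the TGI there is no net growth.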 Activity calls are given as the source filed them. No stated cut-off is given here; in the data, active means GI50 below about 0.43 µM; inactive means the rest.

Key:
Experiment in all cases: NCI tumour cell line growth inhibition, 48 h
[1] = tested on: SN12C renal
[2] = tested on: OVCAR-5 ovarian
[3] = tested on: UACC-257 melanoma
[4] = tested on: 786-0 renal
[5] = tested on: HOP-62 NSCLC
[6] = tested on: MALME-3M melanoma
[7] = tested on: SK-MEL-2 melanoma
[8] = tested on: ACHN renal
[9] = tested on: UACC-62 melanoma

SMILES | TGI [1] | TGI [2] | TGI [3] | TGI [4] | TGI [5] | TGI [6] | TGI [7] | TGI [8] | TGI [9] | GI50 [2] | GI50 [3] | GI50 [4] | outcome [5] | GI50 [6] | GI50 [7] | GI50 [8] | GI50 [9] | GI50 [1] | GI50 [5]
COC1(OC)CC2OC1C1N=NN(C(=O)OC(C)(C)C)C21 (configuration not stated) | > 100 µM | > 100 µM | > 100 µM | > 100 µM | > 100 µM | > 100 µM | > 100 µM | > 100 µM | > 100 µM |  |  |  |  |  |  |  |  |  | 
COc1ccc(C(=O)C#Cc2cnc(OC)nc2OC)cc1 | 2.63 µM | 3.01 µM | 5.63 µM |  | 30.7 µM |  |  |  | 2.8 µM | 31100 µM | 40800 µM | 22000 µM | inactive | 16600 µM | 36100 µM | 17200 µM | 31900 µM |  | 
O=C1CCC(N2C(=O)c3ccccc3C2=O)C(=O)N1CO (configuration not stated) | > 100 µM | > 100 µM | > 100 µM | > 100 µM | > 100 µM | > 100 µM | > 100 µM | > 100 µM | > 100 µM | > 100 µM | 78.6 µM | > 100 µM |  | > 100 µM | > 100 µM | 95.2 µM | 32.6 µM | 73.7 µM | > 100 µM
Cc1ccc(-c2nc3nc(-c4ccccc4)nc(N4CCCNCC4)c3o2)cc1 | 3.06 µM | 3.37 µM | 3.26 µM | 2.97 µM | 3.36 µM | 3.38 µM | 3.84 µM | 3.12 µM | 3.14 µM | 1.89 µM | 1.72 µM | 1.52 µM |  | 1.85 µM | 2.11 µM | 1.73 µM | 1.68 µM | 1.56 µM | 1.81 µM
CCCC(=O)OCC1OC(n2cnc3c(=S)nc[nH]c32)C(OC(=O)CCC)C1OC(=O)CCC (configuration not stated) | > 100 µM | > 100 µM | > 100 µM | > 100 µM | > 100 µM | > 100 µM | > 100 µM | > 100 µM | > 100 µM | 4.76 µM | 10.7 µM | 3.46 µM |  | 38.5 µM | 28.1 µM | 6.15 µM | 1.91 µM | 4.58 µM | 2.84 µM
Nc1c(-c2ccc(Cl)cc2)[n+]([O-])c2ccccc2[n+]1[O-] | > 100 µM | > 100 µM | > 100 µM | > 100 µM | > 100 µM | > 100 µM | > 100 µM | > 100 µM | > 100 µM |  |  |  |  |  |  |  |  |  | 
N#CSC1CCCCNC1=O (configuration not stated) | 30.8 µM | 13.2 µM | 34.6 µM | 32.6 µM | 41.8 µM | 31.4 µM | 27 µM | 29.9 µM | 29.1 µM |  |  |  |  |  |  |  |  |  | 
CC(SC(=S)N1CCOCC1)c1cc2oc(=O)n(C)c2cc1Cl (configuration not stated) | > 100 µM | > 100 µM | > 100 µM | > 100 µM | > 100 µM | > 100 µM | > 100 µM | > 100 µM | > 100 µM |  |  |  |  |  |  |  |  |  | 
O=C(CCc1cc(-c2ccccc2)nc(=S)[nH]1)N(Cc1ccccc1)Cc1ccccc1 | > 100 µM | > 100 µM | > 100 µM | > 100 µM | > 100 µM | > 100 µM | > 100 µM | > 100 µM | > 100 µM |  |  |  |  |  |  |  |  |  | 
